Values of other authors in patent publication US9345804B2, “S-nitrosothiol-generating skin dressings” (Insense Limited, priority 2007, dated 2016).

Assays:
[1] = at 25° C.
[2] = under normal conditions

Compound	pKa [1]	time to almost complete decomposition [2]
O=NO [nitrite]	3.4	–
nitrosoglycerol	–	hours/days
